In patent publication US7335814B2, “Transgenic cells expressing glucosyltransferase nucleic acids” (The University of York, priority 2000, dated 2008):

Legend:
Type in all cases: biochemical
recombinant GTase A42 = target: T1, recombinant GTase A42 (Arabidopsis thaliana, UniProt O23401); assay: Kinetic studies (Michaelis-Menten) on recombinant GTase producing glucose esters; settings: glucose ester formation
T1 construct: made in house; host or cells: E. coli
T1 sequence (O23401 1-479): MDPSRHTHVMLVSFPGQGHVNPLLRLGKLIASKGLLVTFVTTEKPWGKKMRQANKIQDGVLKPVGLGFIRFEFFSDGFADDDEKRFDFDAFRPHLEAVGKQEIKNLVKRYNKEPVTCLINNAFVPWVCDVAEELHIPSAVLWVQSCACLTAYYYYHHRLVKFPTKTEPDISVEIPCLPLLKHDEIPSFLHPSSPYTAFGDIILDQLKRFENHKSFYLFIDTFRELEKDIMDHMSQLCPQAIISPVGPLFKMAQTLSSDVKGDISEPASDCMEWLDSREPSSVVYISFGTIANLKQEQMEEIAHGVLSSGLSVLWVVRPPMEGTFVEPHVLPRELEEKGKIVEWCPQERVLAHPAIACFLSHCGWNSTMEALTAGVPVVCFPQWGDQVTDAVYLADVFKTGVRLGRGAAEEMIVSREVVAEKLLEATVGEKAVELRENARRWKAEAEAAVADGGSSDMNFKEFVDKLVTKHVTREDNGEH

recombinant GTase A119 = target: T2, recombinant GTase A119 (Arabidopsis thaliana, UniProt Q9LVR1); assay: Kinetic studies (Michaelis-Menten) on recombinant GTase producing O-glucosides; settings: O-glucoside formation
T2 construct: made in house; host or cells: E. coli
T2 sequence (Q9LVR1 1-481): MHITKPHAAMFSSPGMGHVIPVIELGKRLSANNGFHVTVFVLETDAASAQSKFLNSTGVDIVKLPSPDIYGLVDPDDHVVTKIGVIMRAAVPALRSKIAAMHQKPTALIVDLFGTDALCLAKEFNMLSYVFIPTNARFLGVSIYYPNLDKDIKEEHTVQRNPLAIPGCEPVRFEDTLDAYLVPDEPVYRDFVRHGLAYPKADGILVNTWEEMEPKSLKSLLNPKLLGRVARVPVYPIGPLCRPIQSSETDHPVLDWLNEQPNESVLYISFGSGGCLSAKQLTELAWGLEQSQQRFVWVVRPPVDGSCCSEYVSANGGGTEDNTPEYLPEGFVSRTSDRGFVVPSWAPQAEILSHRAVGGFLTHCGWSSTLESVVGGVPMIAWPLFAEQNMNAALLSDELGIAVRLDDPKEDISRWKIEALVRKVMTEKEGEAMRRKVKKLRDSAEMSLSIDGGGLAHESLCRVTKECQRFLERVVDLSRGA

recombinant GTase A961 = target: T3, recombinant GTase A961 (Arabidopsis thaliana, UniProt O82381); assay: Specific activity of recombinant GTase producing O-glucosides against lignin precursors (HPLC); settings: 30° C.; ND = not detected
T3 construct: made in house; host or cells: E. coli
T3 sequence (O82381 1-481): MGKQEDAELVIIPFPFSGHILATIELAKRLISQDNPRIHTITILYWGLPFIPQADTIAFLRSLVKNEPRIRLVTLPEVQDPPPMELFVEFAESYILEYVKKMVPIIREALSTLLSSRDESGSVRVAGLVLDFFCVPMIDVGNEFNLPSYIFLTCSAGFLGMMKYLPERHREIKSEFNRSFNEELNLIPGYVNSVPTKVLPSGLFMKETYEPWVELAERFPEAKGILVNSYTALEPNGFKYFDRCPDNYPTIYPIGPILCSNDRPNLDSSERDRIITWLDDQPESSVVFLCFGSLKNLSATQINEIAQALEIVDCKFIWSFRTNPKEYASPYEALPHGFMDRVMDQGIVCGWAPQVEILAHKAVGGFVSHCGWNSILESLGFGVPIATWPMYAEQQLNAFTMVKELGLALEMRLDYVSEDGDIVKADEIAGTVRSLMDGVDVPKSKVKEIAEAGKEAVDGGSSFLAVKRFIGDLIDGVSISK

recombinant GTase A962 = target: T4, recombinant GTase A962 (Arabidopsis thaliana, UniProt O82382); assay: as above; settings: 30° C.; ND = not detected
T4 construct: made in house; host or cells: E. coli
T4 sequence (O82382 1-474): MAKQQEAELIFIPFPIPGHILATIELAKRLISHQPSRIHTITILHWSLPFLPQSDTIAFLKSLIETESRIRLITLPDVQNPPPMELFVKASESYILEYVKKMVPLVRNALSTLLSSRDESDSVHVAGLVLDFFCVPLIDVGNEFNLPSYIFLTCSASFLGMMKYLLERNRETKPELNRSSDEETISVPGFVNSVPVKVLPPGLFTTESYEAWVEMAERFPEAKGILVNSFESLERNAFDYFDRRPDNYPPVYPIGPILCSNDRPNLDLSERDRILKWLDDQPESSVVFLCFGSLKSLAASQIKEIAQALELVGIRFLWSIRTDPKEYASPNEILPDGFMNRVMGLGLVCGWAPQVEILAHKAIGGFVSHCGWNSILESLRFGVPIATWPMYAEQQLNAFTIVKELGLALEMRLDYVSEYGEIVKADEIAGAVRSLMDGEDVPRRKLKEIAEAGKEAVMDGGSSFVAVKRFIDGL

Structure (SMILES)	Vmax (A42) (recombinant GTase A42) [nkat/mg]	Vmax (A119) (recombinant GTase A119) [nkat/mg]	Specific activity of A961 (substrate converted to 4-O-glucoside) (recombinant GTase A961) [nkat/mg]	Specific activity of A962 (substrate converted to 4-O-glucoside) (recombinant GTase A962) [nkat/mg]
COc1cc(/C=C/C(=O)O)ccc1O [Ferulic acid, ferulic acid]	18.35	18.87	–	–
O=C(O)/C=C/c1ccc(O)cc1 [p-coumaric acid]	–	–	0.01	0.01
